Laboratory results reported in patent US20040006328A1, “Targeting of sebaceous follicles as a treatment of sebaceous gland disorders” (priority 1999, published 2004).

What was measured:
[1] = Localization of applied dyes in in-vitro human sebaceous skin samples by frozen sectioning and light microscopy; format: in vitro ADME
From the text: Fresh, in-vitro human sebaceous skin samples were used. Dye solutions and particle suspensions were applied to the samples at different concentration and in various vehicles, followed by localization of the dye by frozen sectioning and light microscopy. […] Apparently, almost any dye or suspension can be delivered to the upper infundibulum by direct solvent flow into the pore. Optimization of the concentration and solvent for MB and ICG can be determined by one skilled in the art. […] Physical means of increasing dye uptake into the infundibulum, including ultrasonication with a tissue dismembranator at low intensity, and a simple pressure-applicator intended to open the surface pores while providing a pressure gradient in favor of dye uptake is possible.

[2] = Methylene blue staining of sebaceous glands in ex vivo tissue (topical application, frozen sections, light microscopy); format: in vitro ADME, human
Procedure: (§1) Freshly excised human skin from a face-lift procedure was provided by a plastic surgeon. The skin originated from the periauricular area and the anterior hairline of a middle-aged fair-skinned person. The samples were stored at 4 ? C. overnight. On the day of experiment, the tissue was shaved with a razor and defatted by rubbing the surface with alcohol swabs for 1 minute. After cutting the skin in smaller pieces, the tissue was placed on saline-soaked gauzes. Methylene blue, a cationic hydrophilic dye was dissolved in distilled water, alcohol, and propylene glycol at a concentration of 5% and applied on the surface of the skin in a thick layer at 31 ? C. […] 5 mm-punch biopsies were performed and the samples were processed frozen sections.
There was minimal non-specific staining of the interstitial dermis.
as §1, with “5% and was mixed in a commercially available aqueous-based lotion (50 mL of dissolved dye in 500 mg of lotion) and applied on” for “5% and applied on”
Methylene blue dye was also administered into the sebaceous glands via Retina Gel® (Ortho Pharmaceuticals) as the carrier vehicle. Typically, a sufficient amount of methylene blue (50 mL of dissolved dye in 500 mg of gel) was combined with hydroxypropyl cellulose, butylated hydroxytoluene and alcohol and applied to the epidermis.

increase of rate of uptake by iontophoresis [1]: at least one order of magnitude
entry of dye into the infundibulum ([1]; fresh in-vitro human sebaceous skin, dye solutions at different concentrations and in various vehicles): rapidly enter the infundibulum
non-specific staining of the interstitial dermis (FIG. 9) [2]: minimal
non-specific staining of the interstitial dermis (FIG. 10) [2]: minimal
SMILES: CN(C)c1ccc2nc3ccc(=[N+](C)C)cc-3sc2c1 [Methylene blue]
staining of the sebaceous glands ([1]; fresh in-vitro human sebaceous skin, requiring several hours): deeply and selectively stain the sebaceous glands
surface staining after removal of excess dye ([2]; 5% dye solution mixed in aqueous-based lotion (50 mL of dissolved dye in 500 mg of lotion), 31 C, 1 hour): lightly stained epidermis with accentuation of the staining in the follicular pores
staining in histologic sections (light microscopy, FIG. 10) ([2]; 5% dye solution mixed in aqueous-based lotion, 31 C, 1 hour, frozen sections): dense blue staining of the epidermis and of some sebaceous glands and entire hair follicles
staining in histologic sections (light microscopy, FIG. 9) ([2]; 5% in distilled water, alcohol and propylene glycol, 31 C, 1 hour, 5 mm punch biopsies, frozen sections): dense blue staining of the epidermis and of some sebaceous glands and entire hair follicles
surface staining after removal of excess dye ([2]; 5% in distilled water, alcohol and propylene glycol, thick layer at 31 C, 1 hour): lightly stained epidermis with accentuation of the staining in the follicular pores
penetration into the sebaceous glands (light microscopy) ([2]; Retina Gel as carrier vehicle (50 mL of dissolved dye in 500 mg of gel)): Penetration of the methylene blue dye into the sebaceous glands
